This experiment deals with T1, GST-RIPK1 (recombinant GST-RIPK1 kinase domain (residues 1-327)) (Homo sapiens, UniProt Q13546).
T1 construct: recombinant GST-RIPK1 kinase domain (residues 1-327) enzyme produced from baculovirus-transfected Sf21 cells; host or cells: baculovirus-transfected Sf21 insect cells
T1 sequence (Q13546 1-327): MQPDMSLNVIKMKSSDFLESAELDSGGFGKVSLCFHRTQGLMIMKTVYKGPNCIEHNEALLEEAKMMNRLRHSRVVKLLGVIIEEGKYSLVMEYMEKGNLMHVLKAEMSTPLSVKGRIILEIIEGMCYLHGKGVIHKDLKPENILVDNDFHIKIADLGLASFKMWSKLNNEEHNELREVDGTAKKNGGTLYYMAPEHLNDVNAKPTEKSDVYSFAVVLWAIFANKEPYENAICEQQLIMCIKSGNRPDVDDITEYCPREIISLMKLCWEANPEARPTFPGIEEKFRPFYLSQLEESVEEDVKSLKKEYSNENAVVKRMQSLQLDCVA
The experiment in a line: RIPK1-ADP-Glo Enzymatic Assay. In kind it is biochemical. To be noted: ten-point titration, top compound concentration of 100000 nM; 25 nM GST-RIPK1, 300 μM ATP, 3 μM dephosphorylated-MBP; 30 min pre-incubation, 150 min reaction. How it is done: RIPK1-ADP-Glo Enzymatic Assay
The enzymatic activity of RIPK1 is measured using an assay derived from ADP-Glo kit (TMPromega), which provides a luminescent-based ADP detection system. Specifically, the ADP generated by RIPK1 kinase is proportionally detected as luminescent signals in a homogenous fashion. In this context, the assessment of the inhibitory effect of small molecules (EC50) is measured by the effectiveness of the compounds to inhibit the ATP to ADP conversion by RIPK1.
In this assay, the potency (EC50) of each compound was determined from a ten-point (1:3 serial dilution; top compound concentration of 100000 nM) titration curve using the following outlined procedure. To each well of a white ProxiPlus 384 well-plate, 30 nL of compound (1% DMSO in final assay volume of 3 μL) was dispensed, followed by the addition of 2 μL of 1× assay buffer (25 mM Hepes 7.3, 20 mM MgCl2, 50 mM NaCl, 1 mM DTT, 0.005% Tween20, and 0.02% BSA) containing 37.5 nM of GST-RIPK1 (recombinant GST-RIPK1 kinase domain (residues 1-327) enzyme produced from baculovirus-transfected Sf21 cells: MW=62 kDa). Plates were placed in an ambient temperature humidified chamber for a 30 minutes pre-incubation with compound. Subsequently, each reaction was initiated by the addition of 1 μL 1× assay buffer containing 900 μM ATP and 3 μM dephosphorylated-MBP substrate. The final reaction in each well of 3 μL consists of 25 nM of GST-RIPK1, 300 μM ATP, and 3 μM dephosphorylated-MBP. Kinase reactions were allowed to proceed for 150 minutes prior to adding ADP-Glo reagents per Promega's outlined kit protocol. Dose-response curves were generated by plotting percent effect (% product conversion; Y-axis) vs. Log 10 compound concentrations (X-axis). EC50 values were calculated using a non-linear regression, four-parameters sigmoidal dose-response model.
Background: ADP-Glo first removes unused ATP, then detects ADP through luciferase.

As a reminder, the EC50 is the concentration giving half of the maximal effect. As for `O=C1N2[C@@H](CC[C@H]2c2cnccn2)O[C@]12C[C@@H](Oc1ncnn3cccc13)C2` [Example 9.45, (1s,3S,5′S,7a′R)-5′-(pyrazin-2-yl)-3-(pyrrolo[2,1-f][1,2,4]triazin-4-yloxy)tetrahydro-3′H-spiro[cyclobutane-1,2′-pyrrolo[2,1-b]oxazol]-3′-one], the EC50 amounted to 233 nM.

In the case of `N#Cc1ccoc1COC1CC2(C1)OC1CC[C@@H](c3cnccn3)N1C2=O` (stereo partly drawn) [Example 18.55, 2-({[(5′S)-3′-oxo-5′-(pyrazin-2-yl)tetrahydro-3′H-spiro[cyclobutane-1,2′-pyrrolo[2,1-b][1,3]oxazol]-3-yl]oxy}methyl)furan-3-carbonitrile], the EC50 was 126 nM. To `N#Cc1ccnc(O[C@H]2C[C@@]3(C2)O[C@@H]2CC[C@@H](c4ccccc4)N2C3=O)c1` [Example 10.4, 2-(((1r,3R,5′S,7a′R)-3′-oxo-5′-phenyltetrahydro-3′H-spiro[cyclobutane-1,2′-pyrrolo[2,1-b]oxazol]-3-yl)oxy)isonicotinonitrile] belongs 13 nM; to `O=C1N2[C@@H](CC[C@H]2c2cncc(F)c2)OC12CCC(OCc1ccccc1)CC2` (single isomer, unassigned) [Example 2.2, ((1s or r),4R,5′S,7a′R)-4-(benzyloxy)-5′-(5-fluoropyridin-3-yl)tetrahydro-3′H-spiro[cyclohexane-1,2′-pyrrolo[2,1-b]oxazol]-3′-one], 595 nM; to `Cn1cc(C2CC[C@H]3OC4(CC(Oc5cc(C#N)ncn5)C4)C(=O)N23)cn1` (single isomer, unassigned) [Example 6.3, 6-((((1r or s),3R,5′(R or S),7a′R)-5′-(1-methyl-1H-pyrazol-4-yl)-3′-oxotetrahydro-3′H-spiro[cyclobutane-1,2′-pyrrolo[2,1-b]oxazol]-3-yl)oxy)pyrimidine-4-carbonitrile], 129 nM. To `N#Cc1ccc(OC2CC3(C2)O[C@@H]2CC[C@@H](c4ccccc4)N2C3=O)cn1` (stereo partly drawn) [Example 8.2, 5-{[(5′S,7a′R)-3′-oxo-5′-phenyltetrahydro-3′H-spiro[cyclobutane-1,2′-pyrrolo[2,1-b][1,3]oxazol]-3-yl]oxy}pyridine-2-carbonitrile] belongs 251 nM; to `O=C1N2C(CC[C@H]2c2cnccn2)OC12CC(OCc1cnn3cccnc13)C2` (stereo partly drawn) [Example 18.4, (5′S)-5′-(pyrazin-2-yl)-3-[(pyrazolo[1,5-a]pyrimidin-3-yl)methoxy]tetrahydro-3′H-spiro[cyclobutane-1,2′-pyrrolo[2,1-b][1,3]oxazol]-3′-one], 45 nM; to `O=C1N2C(CC[C@H]2c2cnccn2)OC12CC(OCc1cnn(-c3ccccc3)c1)C2` (stereo partly drawn) [Example 18.7, (5′S)-3-[(1-phenyl-1H-pyrazol-4-yl)methoxy]-5′-(pyrazin-2-yl)tetrahydro-3′H-spiro[cyclobutane-1,2′-pyrrolo [2,1-b][1,3]oxazol]-3′-one], 52 nM. With `O=C1N2[C@@H](CC[C@H]2c2cnccn2)O[C@]12C[C@@H](OCc1cccnc1)C2` [Example 18.1, (1S,3S,5′S,7a′R)-5′-(pyrazin-2-yl)-3-(pyridin-3-ylmethoxy)tetrahydro-3′H-spiro[cyclobutane-1,2′-pyrrolo[2,1-b]oxazol]-3′-one], the EC50 was 100 nM. To `O=C1N2[C@@H](CC[C@H]2c2ccccc2)OC12CC(Oc1ccnn3cccc13)C2` (stereo partly drawn) [Example 8.21, (5′S,7a′R)-5′-phenyl-3-[(pyrrolo[1,2-b]pyridazin-4-yl)oxy]tetrahydro-3′H-spiro[cyclobutane-1,2′-pyrrolo[2,1-b][1,3]oxazol]-3′-one] belongs 39 nM. To `Cn1nccc1-c1cccc(OC2CC3(C2)O[C@@H]2CC[C@@H](c4cnccn4)N2C3=O)c1` (stereo partly drawn) [Example 19.14, (5′S,7a′R)-3-[3-(1-methyl-1H-pyrazol-5-yl)phenoxy]-5′-(pyrazin-2-yl)tetrahydro-3′H-spiro[cyclobutane-1,2′-pyrrolo[2,1-b][1,3]oxazol]-3′-one] belongs 16 nM.

Turning to `O=C1N2[C@@H](CC[C@H]2c2cnccn2)OC12CC(Oc1ccccc1)C2` (stereo partly drawn) [Example 19.17, (5′S,7a′R)-3-phenoxy-5′-(pyrazin-2-yl)tetrahydro-3′H-spiro[cyclobutane-1,2′-pyrrolo[2,1-b][1,3]oxazol]-3′-one], the EC50 is 21 nM. To `COc1ccc2cc(COC3CC4(C3)OC3CC[C@@H](c5cnccn5)N3C4=O)ncc2n1` (stereo partly drawn) [Example 18.81, (5′S)-3-[(2-methoxy-1,7-naphthyridin-6-yl)methoxy]-5′-(pyrazin-2-yl)tetrahydro-3′H-spiro[cyclobutane-1,2′-pyrrolo[2,1-b][1,3]oxazol]-3′-one] belongs 756 nM; to `O=C1N2[C@H](CC[C@H]2c2cnccn2)O[C@]12C[C@@H](Oc1ncnn3cccc13)C2` [Example 9.51, (1s,3R,5′R,7a′S)-5′-(pyrazin-2-yl)-3-(pyrrolo[2,1-f][1,2,4]triazin-4-yloxy)tetrahydro-3′H-spiro[cyclobutane-1,2′-pyrrolo[2,1-b]oxazol]-3′-one], 56 nM; to `O=C1N2C(CC[C@H]2c2cnccn2)OC12CC(OCc1ccc3cnccc3c1)C2` (stereo partly drawn) [Example 18.85, (5′S)-3-[(isoquinolin-6-yl)methoxy]-5′-(pyrazin-2-yl)tetrahydro-3′H-spiro[cyclobutane-1,2′-pyrrolo[2,1-b][1,3]oxazol]-3′-one], 79 nM. For the compound `Cc1cnn(-c2cnc(COC3CC4(C3)OC3CC[C@@H](c5cnccn5)N3C4=O)cn2)c1` (stereo partly drawn) [Example 18.15, (5′S)-3-{[5-(4-methyl-1H-pyrazol-1-yl)pyrazin-2-yl]methoxy}-5′-(pyrazin-2-yl)tetrahydro-3′H-spiro[cyclobutane-1,2′-pyrrolo[2,1-b][1,3]oxazol]-3′-one], the EC50 was determined as 76 nM. To `COCCOc1ccc(COC2CC3(C2)OC2CC[C@@H](c4cnccn4)N2C3=O)cc1` (stereo partly drawn) [Example 18.50, (5′S)-3-{[4-(2-methoxyethoxy)phenyl]methoxy}-5′-(pyrazin-2-yl)tetrahydro-3′H-spiro[cyclobutane-1,2′-pyrrolo[2,1-b][1,3]oxazol]-3′-one] belongs 65 nM. To `O=C1N2[C@@H](CC[C@H]2c2cnccn2)OC12CC(OCc1ccc3cnoc3c1)C2` (stereo partly drawn) [Example 18.110, (5′S,7a′R)-3-(benzo[d]isoxazol-6-ylmethoxy)-5′-(pyrazin-2-yl)tetrahydro-3′H-spiro[cyclobutane-1,2′-pyrrolo [2,1-b]oxazol]-3′-one] belongs 44 nM; to `N#Cc1cccc(F)c1COC1CC2(C1)OC1CC[C@@H](c3cnccn3)N1C2=O` (stereo partly drawn) [Example 18.51, 3-fluoro-2-({[(5′S)-3′-oxo-5′-(pyrazin-2-yl)tetrahydro-3′H-spiro[cyclobutane-1,2′-pyrrolo[2,1-b][1,3]oxazol]-3-yl]oxy}methyl)benzonitrile], 210 nM; to `Cc1nc2c(OC3CC4(C3)O[C@@H]3CC[C@@H](c5cc(F)cc(F)c5)N3C4=O)ncnc2s1` (stereo partly drawn) [Example 9.7, (5′S,7a′R)-5′-(3,5-difluorophenyl)-3-[(2-methyl[1,3]thiazolo[5,4-d]pyrimidin-7-yl)oxy]tetrahydro-3′H-spiro[cyclobutane-1,2′-pyrrolo[2,1-b][1,3]oxazol]-3′-one], 201 nM.

These data come from patent publication US20250154173A1 (Merck Sharp & Dohme LLC, priority 2023, published 2025).
